This note sets out measurements from patent US11352340B2, “Pyridine and pyridimine compounds as PI3K-gamma inhibitors” (Incyte Corporation, priority 2016, dated 2022).

Structures can show the parent of a compound that is named as a salt.

Assay [1] concerns the target PI3Kγ (p110γ) Recombinant Human Protein (Homo sapiens (Human), UniProt P48736). In words: PI3K-γ Scintillation Proximity Assay. The note with it: read-out: PI3K-gamma SPA IC50. The class given is biochemical. In a few lines:
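Radiometric SPA: reaction at room temperature for 120 min using 2 μM ATP with [γ-33P]ATP tracer, 20 μM PIP2 substrate and 13 nM human PI3Kγ (MOPS pH 6.7, MgCl2, DTT, CHAPS; 2% DMSO). EDTA quench with WGA beads, scintillation count, and IC50 fit of percent-of-control activity.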

Assay [2] has as its target PI3Kδ (p110δ/p85α) Recombinant Human Protein (Homo sapiens (Human), UniProt O00329). Kind of assay: PI3Kδ Scintillation Proximity Assay. The class given is biochemical. Particulars: read-out: PI3K-delta SPA IC50. In a few lines: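 Radiometric read-out: 33P-labelled PIP3 product captured on WGA SPA beads and counted, with IC50 fitted from percent activity relative to DMSO control. Enzyme (3.4 nM) was incubated 120 min at room temperature with 20 μM PIP2 and 2 μM ATP at pH 6.7, 2% DMSO.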

For assay [3], the system named is Phosphorylated Ribosomal Protein S6 (RPS6) in THP-1 cells. In words: THP-1 RPS6 ELISA Assay. The class given is cell-based, Human. The note with it: Homo sapiens, MCP-1 stimulated, phospho-RPS6 ELISA, read-out: THP p-RPS6 ELISA IC50. In a few lines:
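Phospho-RPS6 in lysates measured by ELISA at 450 nm, corrected at 540 nm, after MCP-1 challenge (10 nM, 15 min) of THP-1 cells that were starved overnight and exposed to test compound for 2 h at 37° C, 2×10^5 cells/well. Curve fit of percent inhibition gives IC50.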

Chain of PI3Kγ (p110γ) Recombinant Human Protein (P48736 whole entry): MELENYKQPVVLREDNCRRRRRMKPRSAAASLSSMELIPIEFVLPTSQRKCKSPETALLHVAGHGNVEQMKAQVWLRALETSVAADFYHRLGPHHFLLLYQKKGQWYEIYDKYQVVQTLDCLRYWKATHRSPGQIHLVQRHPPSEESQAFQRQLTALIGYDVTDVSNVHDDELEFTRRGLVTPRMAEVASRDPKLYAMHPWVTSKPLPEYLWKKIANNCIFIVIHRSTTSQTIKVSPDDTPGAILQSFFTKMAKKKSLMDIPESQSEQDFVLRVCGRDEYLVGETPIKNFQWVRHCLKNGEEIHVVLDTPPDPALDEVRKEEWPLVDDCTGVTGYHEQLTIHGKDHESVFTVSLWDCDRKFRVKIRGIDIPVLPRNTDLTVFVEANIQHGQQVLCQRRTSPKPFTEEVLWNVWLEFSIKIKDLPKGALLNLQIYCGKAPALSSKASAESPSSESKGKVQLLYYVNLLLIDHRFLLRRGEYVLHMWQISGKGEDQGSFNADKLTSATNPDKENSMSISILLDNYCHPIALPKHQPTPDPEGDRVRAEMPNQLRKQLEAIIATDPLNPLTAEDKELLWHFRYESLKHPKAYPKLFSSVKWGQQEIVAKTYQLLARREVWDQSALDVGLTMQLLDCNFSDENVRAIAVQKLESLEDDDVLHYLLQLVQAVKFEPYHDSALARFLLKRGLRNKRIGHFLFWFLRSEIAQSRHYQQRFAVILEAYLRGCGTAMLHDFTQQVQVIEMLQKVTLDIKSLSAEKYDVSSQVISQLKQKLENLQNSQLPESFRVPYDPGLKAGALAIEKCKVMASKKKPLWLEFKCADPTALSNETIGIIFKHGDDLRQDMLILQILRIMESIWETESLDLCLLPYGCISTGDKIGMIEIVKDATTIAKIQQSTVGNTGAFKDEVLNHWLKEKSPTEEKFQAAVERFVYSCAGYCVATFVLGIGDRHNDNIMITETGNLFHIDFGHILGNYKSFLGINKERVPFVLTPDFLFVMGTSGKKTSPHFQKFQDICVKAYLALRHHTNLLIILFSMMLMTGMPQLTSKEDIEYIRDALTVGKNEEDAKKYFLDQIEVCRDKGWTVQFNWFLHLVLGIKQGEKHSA
Chain of PI3Kδ (p110δ/p85α) Recombinant Human Protein (O00329 whole entry): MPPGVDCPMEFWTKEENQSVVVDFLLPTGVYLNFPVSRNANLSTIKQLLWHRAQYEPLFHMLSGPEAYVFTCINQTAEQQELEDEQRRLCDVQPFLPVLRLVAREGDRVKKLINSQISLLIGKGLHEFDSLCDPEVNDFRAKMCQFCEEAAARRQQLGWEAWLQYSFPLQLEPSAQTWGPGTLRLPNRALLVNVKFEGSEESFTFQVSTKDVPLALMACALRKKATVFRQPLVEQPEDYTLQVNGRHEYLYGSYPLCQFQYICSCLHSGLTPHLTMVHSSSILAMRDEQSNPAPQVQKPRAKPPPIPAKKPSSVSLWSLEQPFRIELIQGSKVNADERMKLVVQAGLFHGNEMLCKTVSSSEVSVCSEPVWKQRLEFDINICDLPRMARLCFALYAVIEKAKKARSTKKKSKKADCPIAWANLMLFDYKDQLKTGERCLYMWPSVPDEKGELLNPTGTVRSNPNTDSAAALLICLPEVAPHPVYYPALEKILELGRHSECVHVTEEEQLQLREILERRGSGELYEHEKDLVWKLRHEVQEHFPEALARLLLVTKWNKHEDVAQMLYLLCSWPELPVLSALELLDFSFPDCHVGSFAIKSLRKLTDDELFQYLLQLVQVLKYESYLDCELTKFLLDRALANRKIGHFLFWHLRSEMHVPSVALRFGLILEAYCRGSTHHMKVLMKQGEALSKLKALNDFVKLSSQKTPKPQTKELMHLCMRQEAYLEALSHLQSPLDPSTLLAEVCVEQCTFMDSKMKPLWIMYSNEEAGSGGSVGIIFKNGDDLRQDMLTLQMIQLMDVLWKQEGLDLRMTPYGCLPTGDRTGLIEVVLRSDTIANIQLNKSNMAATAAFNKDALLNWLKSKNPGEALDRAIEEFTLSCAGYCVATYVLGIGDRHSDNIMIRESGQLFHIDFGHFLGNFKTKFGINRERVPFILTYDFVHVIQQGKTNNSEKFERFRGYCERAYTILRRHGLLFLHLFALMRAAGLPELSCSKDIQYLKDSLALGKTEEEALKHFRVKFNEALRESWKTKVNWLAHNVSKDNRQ
Chain of PI3Kδ (p110δ/p85α) Recombinant Human Protein (P27986 whole entry partner): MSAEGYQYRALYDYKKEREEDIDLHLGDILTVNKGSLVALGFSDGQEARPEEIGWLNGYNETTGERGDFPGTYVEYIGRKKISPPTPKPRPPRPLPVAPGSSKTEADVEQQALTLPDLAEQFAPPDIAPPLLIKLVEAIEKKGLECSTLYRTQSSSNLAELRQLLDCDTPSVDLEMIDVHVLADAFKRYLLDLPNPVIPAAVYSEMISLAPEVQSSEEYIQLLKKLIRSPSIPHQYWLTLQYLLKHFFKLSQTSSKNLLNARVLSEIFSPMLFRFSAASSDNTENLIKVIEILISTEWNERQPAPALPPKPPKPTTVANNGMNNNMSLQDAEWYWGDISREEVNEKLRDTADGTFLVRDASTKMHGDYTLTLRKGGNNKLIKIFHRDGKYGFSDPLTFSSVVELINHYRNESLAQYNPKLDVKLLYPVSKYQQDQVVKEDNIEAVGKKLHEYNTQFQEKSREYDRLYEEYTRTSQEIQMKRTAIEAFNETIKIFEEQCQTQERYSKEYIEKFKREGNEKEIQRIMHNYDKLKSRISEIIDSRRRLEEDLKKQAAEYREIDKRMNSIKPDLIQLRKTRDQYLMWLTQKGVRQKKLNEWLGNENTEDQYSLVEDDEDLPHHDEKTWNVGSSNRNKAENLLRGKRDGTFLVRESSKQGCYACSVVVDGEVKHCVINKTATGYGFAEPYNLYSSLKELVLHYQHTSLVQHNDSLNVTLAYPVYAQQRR

Consider `CCc1[nH]c(-c2cc(-c3cncc(S(C)(=O)=O)c3)ccn2)nc1C` [Example 117, 2′-(5-Ethyl-4-methyl-1H-imidazol-2-yl)-5-(methylsulfonyl)-3,4′-bipyridine], for which the IC50 in assay [1] was not above 50 nM; in assay [2] it was not above 50 nM; in assay [3] it was not above 300 nM.
Regarding `O=C(Nc1cncc(-c2ccnc(-c3ncc(-c4ccccc4)[nH]3)c2)c1)C1CCCC1` [Example 138, N-(2′-(5-Phenyl-1H-imidazol-2-yl)-3,4′-bipyridin-5-yl)cyclopentanecarboxamide], the IC50 in assay [1] is not above 500 nM; in assay [2] it was not above 100 nM; in assay [3], more than 5000 nM.
The matching figures for `Cc1nc(-c2cc(-c3cncc(C(=O)N4CCC(CCO)C4)c3)ccn2)[nH]c1C` (racemic) [Example 169, (2′-(4,5-Dimethyl-1H-imidazol-2-yl)-3,4′-bipyridin-5-yl)(3-(2-hydroxyethyl)pyrrolidin-1-yl)methanone]: not above 100 nM, not above 50 nM and 1000 to 5000 nM.
Take `CCCCCNc1ncc(-c2cc(-c3cncc(OC)c3)ccn2)[nH]1` [Example 63, 5-(5-Methoxy-3,4′-bipyridin-2′-yl)-N-pentyl-1H-imidazol-2-amine trifluoroacetate salt]: the IC50 in assay [1] is not above 500 nM; in assay [2], more than 500 nM; in assay [3], more than 5000 nM.
With `CS(=O)(=O)N1CCC(c2c[nH]c(-c3cc(-c4cnn(Cc5ccc(Cl)cc5)c4)ccn3)n2)C1` (single isomer, unassigned) [Example 300, 4-[1-(4-Chlorobenzyl)-1H-pyrazol-4-yl]-2-{4-[1-(methylsulfonyl)pyrrolidin-3-yl]-1H-imidazol-2-yl}pyridine Trifluoroacetate Salt], the IC50 in assay [1] was not above 50 nM; in assay [2], not above 500 nM; in assay [3], 300 to 1000 nM.
For the compound `Cc1nc(-c2cc(-c3cncc(C(=O)N4CCCC(O)C4)c3)ccn2)[nH]c1C` (racemic) [Example 154, (2′-(4,5-Dimethyl-1H-imidazol-2-yl)-3,4′-bipyridin-5-yl)(3-hydroxypiperidin-1-yl)methanone], the IC50 in assay [1] was not above 50 nM; in assay [2], not above 100 nM; in assay [3] it was 300 to 1000 nM.
The matching figures for `Clc1ccccc1Cn1cc(-c2ccnc(-c3ncc(-c4ccccc4)[nH]3)c2)cn1` [Example 7, 4-(1-(2-Chlorobenzyl)-1H-pyrazol-4-yl)-2-(5-phenyl-1H-imidazol-2-yl)pyridine trifluoroacetate salt]: not above 100 nM, not above 500 nM and more than 5000 nM.
For `COc1cncc(-c2ccnc(-c3nc(C)c(C)[nH]3)c2)c1` [Example 76, 2′-(4,5-Dimethyl-1H-imidazol-2-yl)-5-methoxy-3,4′-bipyridine], the IC50 in assay [1] was not above 50 nM; in assay [2] it was not above 100 nM; in assay [3], 300 to 1000 nM.
For `Cc1nc(-c2cc(-c3cncc(C4=CCN(S(C)(=O)=O)C4)c3)ccn2)[nH]c1C` [Example 237, 2′-(4,5-Dimethyl-1H-imidazol-2-yl)-5-[1-(methylsulfonyl)-2,5-dihydro-1H-pyrrol-3-yl]-3,4′-bipyridine], in that order: not above 50 nM, not above 50 nM and not above 300 nM.
The matching figures for `Cc1nc(-c2cc(-c3cncc(C(=O)N4CCC4C(F)(F)F)c3)ccn2)[nH]c1C` (racemic) [Example 184, 2′-(4,5-Dimethyl-1H-imidazol-2-yl)-5-{[2-(trifluoromethyl)azetidin-1-yl]carbonyl}-3,4′-bipyridine trifluoroacetate salt]: not above 50 nM, not above 50 nM and 300 to 1000 nM.
For `Cc1nc(-c2cc(-c3cncc(C(=O)N4CCC(=O)C4)c3)ccn2)[nH]c1C` [Example 168, 1-(2′-(4,5-Dimethyl-1H-imidazol-2-yl)-3,4′-bipyridine-5-carbonyl)pyrrolidin-3-one trifluoroacetate salt], in that order: not above 50 nM, not above 50 nM and not above 300 nM.
Take `c1ccc(-c2cnc(-c3cc(-c4cncc(N5CCOCC5)c4)ccn3)[nH]2)cc1` [Example 18, 4-(2′-(5-Phenyl-1H-imidazol-2-yl)-3,4′-bipyridin-5-yl)morpholine trifluoroacetate salt]: the IC50 in assay [1] was not above 50 nM; in assay [2], not above 50 nM; in assay [3], 300 to 1000 nM.
Take `Cc1nc(-c2cc(-c3cncc(C(=O)N4C[C@H](CO)[C@@H](C)C4)c3)ccn2)[nH]c1C` [Example 172, ((3R,4R)-1-{[2′-(4,5-Dimethyl-1H-imidazol-2-yl)-3,4′-bipyridin-5-yl]carbonyl}-4-methylpyrrolidin-3-yl)methanol trifluoroacetate salt]: the values for the IC50 in assay [1], in assay [2] and in assay [3] were not above 50 nM, not above 50 nM and 300 to 1000 nM, respectively.
Regarding `CCNC(=O)c1nc(-c2cc(-c3cncc(S(C)(=O)=O)c3)ccn2)[nH]c1C` [Example 252, N-Ethyl-5-methyl-2-[5-(methylsulfonyl)-3,4′-bipyridin-2′-yl]-1H-imidazole-4-carboxamide trifluoroacetate salt], the IC50 was not above 50 nM in assay [1], not above 50 nM in assay [2] and not above 300 nM in assay [3].
In the case of `FC(F)(F)c1cnc(-c2cc(-c3cncc(N4CCOCC4)c3)ccn2)[nH]1` [Example 99, 4-(2′-(5-(Trifluoromethyl)-1H-imidazol-2-yl)-3,4′-bipyridin-5-yl)morpholine trifluoroacetate salt], the IC50 is not above 50 nM in assay [1], not above 500 nM in assay [2] and more than 5000 nM in assay [3].
For `Cc1nc(-c2cc(-c3cncc(C(=O)NC(C)(C)C)c3)ccn2)[nH]c1C` [Example 208, N-(tert-Butyl)-2′-(4,5-dimethyl-1H-imidazol-2-yl)-3,4′-bipyridine-5-carboxamide trifluoroacetate salt], in that order: not above 50 nM, not above 100 nM and 1000 to 5000 nM.
As to `Cc1nc(-c2cc(-c3cncc(C4CCN(S(C)(=O)=O)C4)c3)ccn2)[nH]c1C` (racemic) [Example 240, 2′-(4,5-Dimethyl-1H-imidazol-2-yl)-5-[1-(methylsulfonyl)pyrrolidin-3-yl]-3,4′-bipyridine], the IC50 in assay [1] is not above 100 nM; in assay [2] it was not above 500 nM; in assay [3], 1000 to 5000 nM.
For `Cc1nc(-c2cc(C3=CCCN(S(=O)(=O)c4ccc(Cl)cc4)C3)ccn2)[nH]c1C` [Example 221, 4-(1-(4-Chlorophenylsulfonyl)-1,2,5,6-tetrahydropyridin-3-yl)-2-(4,5-dimethyl-1H-imidazol-2-yl)pyridine trifluoroacetate salt], in that order: not above 100 nM, not above 500 nM and more than 5000 nM.
The matching figures for `Cc1nc(-c2cc(-c3cncc(C(=O)N4CC[C@H](O)C4)c3)ccn2)[nH]c1C` [Example 146, (S)-(2′-(4,5-Dimethyl-1H-imidazol-2-yl)-3,4′-bipyridin-5-yl)(3-hydroxypyrrolidin-1-yl)methanone]: not above 50 nM, not above 50 nM and not above 300 nM.
For the compound `N#Cc1ccc(Cn2cc(-c3ccnc(-c4ncc(-c5ccccc5)[nH]4)c3)cn2)cc1` [Example 43, 4-((4-(2-(5-Phenyl-1H-imidazol-2-yl)pyridin-4-yl)-1H-pyrazol-1-yl)methyl)benzonitrile trifluoroacetate salt], the IC50 in assay [1] is not above 500 nM; in assay [2], more than 500 nM; in assay [3], more than 5000 nM.
Regarding `Cc1[nH]c(-c2cc(-c3cncc(N4CCOCC4)c3)ccn2)nc1C(=O)N1CC(C)(C)C1` [Example 267, 2′-{4-[(3,3-Dimethylazetidin-1-yl)carbonyl]-5-methyl-1H-imidazol-2-yl}-5-morpholin-4-yl-3,4′-bipyridine], the IC50 was not above 50 nM in assay [1], not above 50 nM in assay [2] and 1000 to 5000 nM in assay [3].
In the case of `CCS(=O)(=O)Nc1cncc(-c2ccnc(-c3ncc(-c4ccccc4)[nH]3)c2)c1` [Example 130, N-[2′-(5-Phenyl-1H-imidazol-2-yl)-3,4′-bipyridin-5-yl]ethanesulfonamide Trifluoroacetate Salt], the IC50 in assay [1] was not above 50 nM; in assay [2], not above 50 nM; in assay [3], 300 to 1000 nM.
In the case of `Cc1nc(-c2cc(-c3cncc(C(=O)N4CCC5(CCOCC5)CC4)c3)ccn2)[nH]c1C` [Example 156, (2′-(4,5-Dimethyl-1H-imidazol-2-yl)-3,4′-bipyridin-5-yl)(3-oxa-9-azaspiro[5.5]undecan-9-yl)methanone trifluoroacetate salt], the IC50 in assay [1] was not above 50 nM; in assay [2] it was not above 50 nM; in assay [3] it was 1000 to 5000 nM.
As for `Nc1cncc(-c2ccnc(-c3ncc(-c4ccccc4)[nH]3)c2)c1` [Example 127, 2′-(5-Phenyl-1H-imidazol-2-yl)-3,4′-bipyridin-5-amine Trifluoroacetate Salt], the IC50 was not above 50 nM in assay [1], not above 50 nM in assay [2] and 1000 to 5000 nM in assay [3].
